The text below walks through data of US5919668A, “Non-reducing saccharide and its production and use” (Kabushiki Kaisha Hayashibara Seibutsu Kagaku Kenkyujo, priority 1994, dated 1999).

The nature of data set [1]: Reducing power by the Somogyi-Nelson method, represented in terms of DE. Type of data set: physicochemical. As to conditions: high-purity preparations, Somogyi-Nelson method. As to the method:
The high-purity preparations of the newly formed saccharides were determined for reducing power by the Somogyi-Nelson method and represented in terms of DE.

The nature of data set [2]: Maillard reaction (coloration with glycine, absorbance at 480 nm). The class given is physicochemical. As to conditions: for Coloration degree relative to maltooligosaccharides as material: 480 nm, with glycine; for Coloration degree at 480 nm: 10% saccharide, 1% glycine, 50 mM phosphate buffer pH7.0, 100° C., 90 minutes, 1 cm cuvette. As for the experimental part:
Solutions of 10% saccharide preparation PI, PII, PIII, PIV or PV prepared in Experiment 4 and 1% glycine in 50 mM phosphate buffer (pH7.0) were incubated at 100° C. for 90 minuets, cooled and determined in 1 cm cuvette for absorbance at 480 nm. As control, maltotriose, maltotetraose, maltopentaose, maltohexaose and maltoheptaose which were used as the starting materials were treated similarly as above and determined for absorbance at 480 nm.
10% High-purity trehalose preparation, purity of 99.5%, obtained by the method in Experiment 17 and 1% glycine in 50 mM phosphate buffer (pH7.0) was incubated at 100° C. for 90 minutes, cooled and measured in lcm cuvette for absorbance at 480 nm. As control, glucose and maltose were treated similarly as above and then measured for absorbance at 480 nm.

Data set [3] deals with mice. Put plainly: Acute toxicity test, oral administration in mice. The class given is in vivo. As to conditions: for LD50: mouse, in vivo, po; for Animal death at the possible highest dose: oral, mice. As for the experimental part: Acute toxicity tests were conducted on the non-reducing saccharide preparations PI, PII, PIII, PIV and PV prepared in Experiment 4, where they were orally administered to 7 week-old dd mice. […] Thus the LD50 of these saccharides was at least 50 g/kg or higher.
An acute toxicity test was conducted on a high-purity trehalose preparation obtained by the method in Experiment 17, purity of 99.5%, where it was orally administered in mice. […] Thus its LD50 would be briefly 50 g/kg or higher.

SMILES strings stand for the structures.

In the case of `OC[C@H]1O[C@H](O[C@H]2O[C@H](CO)[C@@H](O[C@H]3O[C@H](CO)[C@@H](O[C@H]4O[C@H](CO)[C@@H](O[C@H]5O[C@H](CO)[C@@H](O[C@H]6O[C@H](CO)[C@@H](O[C@H]7O[C@H](CO)[C@@H](O)[C@H](O)[C@H]7O)[C@H](O)[C@H]6O)[C@H](O)[C@H]5O)[C@H](O)[C@H]4O)[C@H](O)[C@H]3O)[C@H](O)[C@H]2O)[C@H](O)[C@@H](O)[C@@H]1O` [PV, alpha-maltopentaosyl trehalose], in data set [1], the “DE of saccharide preparation” value was found to be 0.23. The “Coloration degree relative to maltooligosaccharides as material” value in data set [2] is recorded as 3-6%. In data set [3], the LD50 result is “at least 50 g/kg” and the “Animal death at the possible highest dose” value (“Animal death” below) is given as “no animal death was observed”.

Turning to `OC[C@H]1O[C@H](O[C@H]2O[C@H](CO)[C@@H](O[C@H]3O[C@H](CO)[C@@H](O)[C@H](O)[C@H]3O)[C@H](O)[C@H]2O)[C@H](O)[C@@H](O)[C@@H]1O` [PI, alpha-glucosyl trehalose], in data set [1], the “DE of saccharide preparation” value was 0.83. Moreover, in data set [2], the “Coloration degree at 480 nm” value amounted to 0.027 and the “Coloration degree relative to maltooligosaccharides as material” value is reported as 3-6%. For the same compound, the “Animal death” value in data set [3] is “no animal death was observed”.

As to `OC[C@H]1O[C@H](O[C@H]2O[C@H](CO)[C@@H](O[C@H]3O[C@H](CO)[C@@H](O[C@H]4O[C@H](CO)[C@@H](O)[C@H](O)[C@H]4O)[C@H](O)[C@H]3O)[C@H](O)[C@H]2O)[C@H](O)[C@@H](O)[C@@H]1O` [PII, alpha-maltosyl trehalose], the “DE of saccharide preparation” value in data set [1] came out at 0.35. Further, in data set [2], the “Coloration degree at 480 nm” value worked out at 0.018 and the “Coloration degree relative to maltooligosaccharides as material” value is 3-6%. Also, the “Animal death” value in data set [3] is reported as “no animal death was observed”.

For `OC[C@H]1O[C@H](O[C@H]2O[C@H](CO)[C@@H](O[C@H]3O[C@H](CO)[C@@H](O[C@H]4O[C@H](CO)[C@@H](O[C@H]5O[C@H](CO)[C@@H](O)[C@H](O)[C@H]5O)[C@H](O)[C@H]4O)[C@H](O)[C@H]3O)[C@H](O)[C@H]2O)[C@H](O)[C@@H](O)[C@@H]1O` [PIII, alpha-maltotriosyl trehalose], the “DE of saccharide preparation” value in data set [1] turned out to be 0.10. Moreover, in data set [2], the “Coloration degree at 480 nm” value turned out to be 0.012 and the “Coloration degree relative to maltooligosaccharides as material” value was 3-6%. Moreover, in data set [3], the “Animal death” value was “no animal death was observed”.

For `OC[C@H]1O[C@H](O[C@H]2O[C@H](CO)[C@@H](O[C@H]3O[C@H](CO)[C@@H](O[C@H]4O[C@H](CO)[C@@H](O[C@H]5O[C@H](CO)[C@@H](O[C@H]6O[C@H](CO)[C@@H](O)[C@H](O)[C@H]6O)[C@H](O)[C@H]5O)[C@H](O)[C@H]4O)[C@H](O)[C@H]3O)[C@H](O)[C@H]2O)[C@H](O)[C@@H](O)[C@@H]1O` [PIV, alpha-maltotetraosyl trehalose], in data set [1], the “DE of saccharide preparation” value is reported as 0.27. Also, the “Coloration degree relative to maltooligosaccharides as material” value in data set [2] was 3-6%. In data set [3], the LD50 result is given as “at least 50 g/kg” and the “Animal death” value is given as “no animal death was observed”.
